Experimental data: ChEMBL document CHEMBL1201862, “PubChem BioAssay data set” (2004)
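1) Cells in 96-well plates. 2) Compound, 48 h, 5 concentrations. 3) Linear interpolation between surrounding doses. 4) Unreached endpoint = highest concentration. At the GI50, growth is halved.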 Active and inactive are the calls of the source. Cut-off read from the data, not from the text of the source: active = GI50 up to about 1.1 µM and inactive = higher.

Tests used:
Assay in all cases: inhibition of tumour cell growth, NCI panel, 48 h
OVCAR-8 = system: OVCAR-8
NCI-H460 = system: NCI-H460
OVCAR-4 = system: OVCAR-4
SK-MEL-5 = system: SK-MEL-5
UO-31 = system: UO-31
SN12C = system: SN12C
ACHN = system: ACHN
HT-29 = system: HT-29
OVCAR-3 = system: OVCAR-3
EKVX = system: EKVX
HCT-15 = system: HCT-15
UACC-62 = system: UACC-62
HCT-116 = system: HCT-116
TK-10 = system: TK-10
SNB-19 = system: SNB-19
K562 = system: K562
MOLT-4 = system: MOLT-4
COLO 205 = system: COLO 205
U-251 = system: U-251
SNB-75 = system: SNB-75

Structure (SMILES)	GI50 (OVCAR-8)	GI50 (NCI-H460)	GI50 (OVCAR-4)	GI50 (SK-MEL-5)	GI50 (UO-31)	GI50 (SN12C)	GI50 (ACHN)	GI50 (HT-29)	GI50 (OVCAR-3)	GI50 (EKVX)	GI50 (HCT-15)	GI50 (UACC-62)	GI50 (HCT-116)	GI50 (TK-10)	GI50 (SNB-19)	GI50 (K562)	GI50 (MOLT-4)	GI50 (COLO 205)	GI50 (U-251)	GI50 (SNB-75)
CCN(CC)CCn1nc2c3c(c(NCCN)ccc31)Sc1cc(O)ccc1-2	0.535 µM (active)	0.0715 µM (active)	0.528 µM (active)	0.733 µM (active)	12.3 µM (inactive)	0.372 µM (active)	0.579 µM (active)	0.507 µM (active)	2.43 µM (inactive)	1.4 µM (inactive)	3.03 µM	0.371 µM (active)	0.327 µM (active)	2.22 µM (inactive)	0.611 µM (active)	0.314 µM (active)	0.0396 µM (active)	0.865 µM (active)	0.254 µM (active)	0.813 µM (active)
CSC1(C)C(=O)Nc2c(OCc3ccccc3)cc([N+](=O)[O-])cc21 (configuration not stated)	21.5 µM (inactive)	> 100 µM (inactive)	> 100 µM (inactive)	15.3 µM (inactive)		13.4 µM (inactive)	> 100 µM (inactive)	79.3 µM (inactive)	> 100 µM (inactive)	29.4 µM (inactive)	50.5 µM	19.6 µM (inactive)	85.5 µM (inactive)	> 100 µM (inactive)	> 100 µM (inactive)	91 µM (inactive)	83.6 µM (inactive)	> 100 µM (inactive)	19.9 µM (inactive)	11.9 µM (inactive)
Nn1c(S)nnc1COc1cccc(OCc2nnc(S)n2N)c1	> 100 µM (inactive)	29.7 µM (inactive)	> 100 µM (inactive)		> 100 µM (inactive)	> 100 µM (inactive)	> 100 µM (inactive)	43.7 µM (inactive)	> 100 µM (inactive)	> 100 µM (inactive)	58.7 µM	83.2 µM (inactive)	> 100 µM (inactive)	> 100 µM (inactive)	> 100 µM (inactive)	4.9 µM (inactive)	3.13 µM (inactive)	98.4 µM (inactive)	> 100 µM (inactive)	> 100 µM (inactive)
c1ccc(C2N3CCCCC3[C@@H]3c4[nH]c5ccccc5c4CCN23)cc1 (some centres not stated)	> 100 µM (inactive)	48.8 µM (inactive)	29.5 µM (inactive)	67.3 µM (inactive)	70 µM (inactive)	> 100 µM (inactive)	> 100 µM (inactive)	17.5 µM (inactive)	> 100 µM (inactive)	> 100 µM (inactive)	> 100 µM	48.3 µM (inactive)	64 µM (inactive)	> 100 µM (inactive)	> 100 µM (inactive)	41.4 µM (inactive)	41.2 µM (inactive)	23.3 µM (inactive)	> 100 µM (inactive)	57.9 µM (inactive)
Cn1c(=O)c2nc3sc4c(n3c2n(C)c1=O)C(=O)c1ccccc1C4=O	> 58.6 µM (inactive)	> 71.1 µM (inactive)	> 64.6 µM (inactive)	> 75 µM (inactive)	> 66.2 µM (inactive)	> 69.2 µM (inactive)	> 32.4 µM (inactive)	42.6 µM (inactive)	12.1 µM (inactive)	> 100 µM (inactive)	> 59.6 µM	> 100 µM (inactive)	> 54.8 µM (inactive)	> 100 µM (inactive)	> 44.1 µM (inactive)	63.2 µM (inactive)	13.5 µM (inactive)	> 73.5 µM (inactive)	39 µM (inactive)	14.7 µM (inactive)
CC1(C)[C@H](C(=O)O)N2C(=O)[C@@H](NS(=O)(=O)c3ccc([N+](=O)[O-])cc3)[C@H]2S1(=O)=O	> 100 µM (inactive)	> 100 µM (inactive)	> 100 µM (inactive)	> 100 µM (inactive)	> 100 µM (inactive)	> 100 µM (inactive)	> 100 µM (inactive)	> 100 µM (inactive)	> 100 µM (inactive)	> 100 µM (inactive)	> 100 µM	> 100 µM (inactive)	> 100 µM (inactive)	> 100 µM (inactive)	> 100 µM (inactive)	> 100 µM (inactive)	> 100 µM (inactive)	> 100 µM (inactive)	> 100 µM (inactive)	> 100 µM (inactive)
CC1OC1C(=O)P(=O)(O)O (configuration not stated)	> 100 µM (inactive)	> 100 µM (inactive)	> 100 µM (inactive)	> 100 µM (inactive)	> 100 µM (inactive)	> 100 µM (inactive)	> 100 µM (inactive)		> 100 µM (inactive)	> 100 µM (inactive)	> 100 µM	> 100 µM (inactive)	> 100 µM (inactive)	> 100 µM (inactive)	> 100 µM (inactive)	> 100 µM (inactive)	> 100 µM (inactive)	> 100 µM (inactive)	> 100 µM (inactive)	57.9 µM (inactive)
